Our source for the relative viability values is the supplement of paper PMC10307832.

What all share (test): relative viability (nuclei count vs DMSO), 5 days (fraction); higher = more cells survive
Compound in the assay “IPA-3 + Palbociclib”: C1=CC=C2C(=C1)C=CC(=C2SSC3=C(C=CC4=CC=CC=C43)O)O [IPA-3] + CC(=O)c1c(C)c2cnc(Nc3ccc(N4CCNCC4)cn3)nc2n(C2CCCC2)c1=O [Palbociclib] (partner 0.5 µM)
The procedure, abridged:
(§1)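 Relative viability divides the nuclei count in treated wells by that in vehicle wells. Lung cancer cell lines were seeded in 1536-well plates, dosed by pin tool the next day, and fixed and stained after 5 days in one step with final 0.05% Triton X-100, 1% formaldehyde and 1 ug/ml Hoechst. Dosing was a single drug or a fixed anchor-drug dose plus five library-drug doses (not always all listed) in √10 steps, and values are medians of duplicate plates imaged at 4×.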

Compound in the assay “IPA-3 + Bortezomib”: C1=CC=C2C(=C1)C=CC(=C2SSC3=C(C=CC4=CC=CC=C43)O)O [IPA-3] + CC(C)C[C@H](NC(=O)[C@H](Cc1ccccc1)NC(=O)c1cnccn1)B(O)O [Bortezomib] (partner 0.002 µM)
Summed up:
as §1

Compound in the assay “Doramapimod + Linsitinib”: Cc1ccc(-n2nc(C(C)(C)C)cc2NC(=O)Nc2ccc(OCCN3CCOCC3)c3ccccc23)cc1 [Doramapimod] + C[C@]1(O)C[C@@H](c2nc(-c3ccc4ccc(-c5ccccc5)nc4c3)c3c(N)nccn32)C1 [Linsitinib] (partner 1 µM)
The procedure, abridged:
as §1

Compound in the assay “RAF265 + OSI-027”: Cn1c(Nc2ccc(C(F)(F)F)cc2)nc2cc(Oc3ccnc(-c4ncc(C(F)(F)F)[nH]4)c3)ccc21 [RAF265] + COc1cccc2cc(-c3nc([C@H]4CC[C@H](C(=O)O)CC4)n4ncnc(N)c34)[nH]c12 [OSI-027] (partner 0.5 µM)
The procedure, abridged:
as §1

On to NCI-H2347, for which the relative viability with IPA-3 + Palbociclib (first compound 0.2 µM) amounted to 0.409; with IPA-3 + Palbociclib (first compound 0.6325 µM) it was 0.45; in the assay with IPA-3 + Palbociclib (first compound 2 µM), 0.429; with IPA-3 + Palbociclib (first compound 6.325 µM) it was 0.414; with IPA-3 + Palbociclib (first compound 20 µM) it was 0.448; in the assay with IPA-3 + Bortezomib (first compound 0.2 µM), 0.916. For the same cell line, the relative viability with IPA-3 + Bortezomib (first compound 0.6325 µM) worked out at 1.01; in the assay with IPA-3 + Bortezomib (first compound 2 µM), 1.12; with IPA-3 + Bortezomib (first compound 6.325 µM), 0.937; in the assay with IPA-3 + Bortezomib (first compound 20 µM), 1.3; in the assay with Doramapimod + Linsitinib (first compound 0.02 µM), 1.04; in the assay with Doramapimod + Linsitinib (first compound 0.06325 µM), 0.974. The relative viability in the assay with Doramapimod + Linsitinib (first compound 0.2 µM) is 0.96; with Doramapimod + Linsitinib (first compound 0.6325 µM) it was 1.01; with Doramapimod + Linsitinib (first compound 2 µM) it was 0.846; in the assay with RAF265 + OSI-027 (first compound 0.01 µM), 0.418; with RAF265 + OSI-027 (first compound 0.03162 µM) it was 0.341; with RAF265 + OSI-027 (first compound 0.1 µM), 0.44. Also, the relative viability is 0.35 in the assay with RAF265 + OSI-027 (first compound 0.3162 µM) and 0.278 with RAF265 + OSI-027 (first compound 1 µM).
With NCI-H2405, the relative viability in the assay with IPA-3 + Palbociclib (first compound 0.2 µM) amounted to 0.561; with IPA-3 + Palbociclib (first compound 0.6325 µM), 0.49; with IPA-3 + Palbociclib (first compound 2 µM), 0.519; with IPA-3 + Palbociclib (first compound 6.325 µM), 0.529; with IPA-3 + Palbociclib (first compound 20 µM), 0.544; with IPA-3 + Bortezomib (first compound 0.2 µM), 1.02. The relative viability with IPA-3 + Bortezomib (first compound 0.6325 µM) was 0.944; with IPA-3 + Bortezomib (first compound 2 µM), 1.02; with IPA-3 + Bortezomib (first compound 6.325 µM), 0.963; in the assay with IPA-3 + Bortezomib (first compound 20 µM) it was 1.02; with Doramapimod + Linsitinib (first compound 0.02 µM), 0.973; in the assay with Doramapimod + Linsitinib (first compound 0.06325 µM) it was 0.869. Further, the relative viability worked out at 0.933 with Doramapimod + Linsitinib (first compound 0.2 µM); 1.27 with Doramapimod + Linsitinib (first compound 0.6325 µM); 0.852 in the assay with Doramapimod + Linsitinib (first compound 2 µM); 0.601 with RAF265 + OSI-027 (first compound 0.01 µM); 0.626 with RAF265 + OSI-027 (first compound 0.03162 µM); 0.621 with RAF265 + OSI-027 (first compound 0.1 µM). Also, the relative viability in the assay with RAF265 + OSI-027 (first compound 0.3162 µM) stood at 0.611; in the assay with RAF265 + OSI-027 (first compound 1 µM), 0.366.
As for NCI-H3122, the relative viability came to 0.185 with IPA-3 + Palbociclib (first compound 0.2 µM); 0.174 in the assay with IPA-3 + Palbociclib (first compound 0.6325 µM); 0.176 with IPA-3 + Palbociclib (first compound 2 µM); 0.219 in the assay with IPA-3 + Palbociclib (first compound 6.325 µM); 0.203 with IPA-3 + Palbociclib (first compound 20 µM); 0.994 with IPA-3 + Bortezomib (first compound 0.2 µM). Moreover, the relative viability was 1.01 in the assay with IPA-3 + Bortezomib (first compound 0.6325 µM); 1.03 in the assay with IPA-3 + Bortezomib (first compound 2 µM); 1.13 with IPA-3 + Bortezomib (first compound 6.325 µM); 0.938 with IPA-3 + Bortezomib (first compound 20 µM); 1.04 with Doramapimod + Linsitinib (first compound 0.02 µM); 1.07 with Doramapimod + Linsitinib (first compound 0.06325 µM). Besides, the relative viability with Doramapimod + Linsitinib (first compound 0.2 µM) is 1.04; with Doramapimod + Linsitinib (first compound 0.6325 µM) it was 0.971; with Doramapimod + Linsitinib (first compound 2 µM) it was 0.988; with RAF265 + OSI-027 (first compound 0.01 µM), 0.971; with RAF265 + OSI-027 (first compound 0.03162 µM), 1.1; with RAF265 + OSI-027 (first compound 0.1 µM) it was 0.948. In addition, in the assay with RAF265 + OSI-027 (first compound 1 µM), the relative viability is 0.42.
For the cell line PC-3 [JPC-3], the relative viability was found to be 0.537 with IPA-3 + Palbociclib (first compound 0.2 µM); 0.541 with IPA-3 + Palbociclib (first compound 0.6325 µM); 0.538 with IPA-3 + Palbociclib (first compound 2 µM); 0.531 with IPA-3 + Palbociclib (first compound 6.325 µM); 0.477 with IPA-3 + Palbociclib (first compound 20 µM); 0.92 in the assay with IPA-3 + Bortezomib (first compound 0.2 µM). Further, the relative viability was found to be 0.885 in the assay with IPA-3 + Bortezomib (first compound 0.6325 µM); 0.786 in the assay with IPA-3 + Bortezomib (first compound 2 µM); 0.824 in the assay with IPA-3 + Bortezomib (first compound 6.325 µM); 0.873 with IPA-3 + Bortezomib (first compound 20 µM); 1.07 with Doramapimod + Linsitinib (first compound 0.02 µM); 0.987 with Doramapimod + Linsitinib (first compound 0.06325 µM). For the same cell line, the relative viability with Doramapimod + Linsitinib (first compound 0.2 µM) turned out to be 0.987; with Doramapimod + Linsitinib (first compound 0.6325 µM), 1.06; with Doramapimod + Linsitinib (first compound 2 µM), 0.998; with RAF265 + OSI-027 (first compound 0.01 µM) it was 0.84; with RAF265 + OSI-027 (first compound 0.03162 µM), 0.655; with RAF265 + OSI-027 (first compound 0.1 µM), 0.746. In addition, the relative viability with RAF265 + OSI-027 (first compound 1 µM) worked out at 0.567.
